Data taken from patent publication US20180280504A1, “GLYCAN-INTERACTING COMPOUNDS AND METHODS OF USE” (SIAMAB THERAPEUTICS, INC., priority 2014, published 2018).

Key:
[1] = E3-STn allograft model, average weight of mice; assay type: in vivo, mouse
Procedure: Balb/c mice were used as part of the test system. 50 female mice were inoculated with E3-STn cells to cause STn-expressing tumor formation. Mice were maintained under pathogen-free conditions with irradiated feed and autoclaved water.
The average weight of mice in each treatment group was also determined on days 1, 4, 6, 8, 11, 13, 15, 18, 20, 22, 26, 27, 29, 32, 34, 36, 39 and 41 following the first administration of each test article (see the following Table). The percent gain or loss over initial weight values is listed in parentheses.

[2] = PAA-glycan ELISA, AcSTn-PAA; assay type: binding; conditions: 200 ng/well PAA antigen; 1:5 dilutions from 1 μM
Procedure: (§1) 18D2 and 18C7 antibodies were further characterized by ELISA comprising antigens other than BSM. ELISAs were carried out according to Example 2, with the exception that ELISA plates were coated with biotinylated polyacrylamide (PAA) particles comprising either AcSTn (AcSTn-PAA), GcSTn (GcSTn-PAA) or Tn (Tn-PAA) as antigens. These particles present the antigens in a multivalent format. Briefly, 96-well ELISA plates were coated with 200 ng/well of each PAA antigen and blocked with PBS with 1% OVA. Antibodies were serially diluted at 1:5 in PBS with 1% OVA using an initial concentration of 1 μM. After blocking, antibodies were added to the plates and plates were incubated for 1.5 hours at room temperature. Binding of anti-STn antibodies was detected using a goat anti-mouse IgG-HRP conjugated antibody (Jackson Immunoresearch Laboratories, West Grove, Pa.). The reaction was developed by addition of HRP substrate and hydrogen peroxide. The reaction was then stopped by the addition of sulfuric acid (1.6 M). Optical densities were measured at 490 nm. A dose-response curve was generated using readings at each concentration tested and a non-linear regression curve was generated with four-parameter modeling to determine EC50 values for each antibody.

[3] = tested on: ST6GalNAc 1 transfected MDA-MB-231 cells (MDA-STn+); assay: Flow cytometry-based analysis of antibody binding, STn+ cells; design: species or system human; conditions: ST6GalNAc 1 transfected MDA-MB-231 cells; APC anti-mouse IgG
Procedure: Flow cytometry-based analysis is carried out to elucidate the curve-dose response for binding of antibodies to cell surface antigens. For these analyses, three cell lines are employed.
MDA-MB-231 cells are human breast cancer cells. They are grown in Earle's Minimum Essential Medium supplemented with 10% fetal calf serum (FCS), 100 μg/ml penicillin, 100 UI/ml streptomycin and 45 μg/ml gentamycin. MCF-7 cells are also human breast cancer cells and are grown under the same conditions as MDA-MB-231 cells. Stably transfected versions of MDA-MB-231 and MCF-7 cells (clone TAH3.P10 for MDA-MB-231 cells and clone A12.1 for MCF-7 cells) that over express GalNAc α2,6-sialyltransferase (ST6GalNAc 1,) are also cultured under the same conditions with the exception of an added 1 mg/ml of G418 to support cells expressing the transgene. ST6GalNAc 1 is an enzme capable of sialylating GalNAc. As a result of over expression, transfected cells express high levels of Neu5Ac-STn (see Julien, S. et al., Glycoconjugate journal. 2001. 18, 883-93; the contents of which are herein incorporated by reference in their entirety). E3 cells are murine breast cancer cells. They are cultured in Dulbecco's E4 medium with 10% FCS. Stably transfected versions of E3 cells expressing high levels of Neu5Gc-STn (E3-STn) are cultured with 600 μg/ml of G418 and 200 μg/ml hygromycin. During growth and maintenance of experimental cells, trypsin is not used for cell passaging.
For analysis, cells are harvested using StemPro Accutase (Life Technologies, Carlsbad, Calif.) and washed with PBS comprising 5% FBS before pelleting by light centrifugation. Cell numbers and viability are determined by trypan blue dye exclusion analysis and cell concentrations are adjusted to 5×10^6 cells/ml in PBS with 5% FBS. 50 μl of cells are added to each well of an assay plate. Cells are combined with 50 μl solutions of antibody being analyzed or control antibodies and incubated for 1 hour at 4° C. Cells are washed and pelleted twice with PBS with 5% FBS before being treated with 100 μl of PBS with 5% FBS comprising a 1:1,500 dilution of anti-mouse IgG (Southern Biotech, Birmingham, Ala.,) conjugated to allophycocyanin (APC). Cells are incubated for 30 min at 4° C. before washing and resuspending in 200 μl of propidium iodide (PI) diluted 1:1000 in PBS with 5% FBS. Treated cells are then subjects to flow cytometry analysis and 10,000 events are acquired for each sample.

[4] = PAA-glycan ELISA, GcSTn-PAA; assay type: binding; conditions: 200 ng/well PAA antigen; 1:5 dilutions from 1 μM
Procedure: as §1

Molecule: CC(=O)O[C@H]1C(=O)[C@@]2(C)[C@H]([C@H](OC(=O)c3ccccc3)[C@]3(O)C[C@H](OC(=O)[C@H](O)[C@@H](NC(=O)c4ccccc4)c4ccccc4)C(C)=C1C3(C)C)[C@]1(OC(C)=O)CO[C@@H]1C[C@@H]2O [Paclitaxel, reference compound]
- Average Weight ([1]; day 1 of study): 16.7 g
- Average Weight ([1]; day 4 of study): 16.5 g
- Average Weight ([1]; day 6 of study): 17 g
- Average Weight ([1]; day 8 of study): 17.3 g
- Average Weight ([1]; day 11 of study): 17.1 g
- Average Weight ([1]; day 13 of study): 17.4 g
- Average Weight ([1]; day 15 of study): 17.8 g
- Average Weight ([1]; day 18 of study): 17.6 g
- Average Weight ([1]; day 20 of study): 17.8 g
- Average Weight ([1]; day 22 of study): 17.9 g
- Average Weight ([1]; day 26 of study): 18.3 g
- Average Weight ([1]; day 27 of study): 18.5 g
- Average Weight ([1]; day 29 of study): 18.9 g
- Average Weight ([1]; day 32 of study): 18.9 g
- Average Weight ([1]; day 34 of study): 19.2 g
- Average Weight ([1]; day 36 of study): 18.5 g
- Average Weight ([1]; day 39 of study): 19.1 g
- Average Weight ([1]; day 41 of study): 19.2 g

B1: 3F1: commercially available mouse anti-STn monoclonal antibody (SBH Sciences), IgG1; VH SEQ ID NO: 59, VL SEQ ID NO: 60 (antibody, V domains shown)
VH: QVQLQQSDAELVKPGASVKISCKASGYTFTDHAIHWVKQKPEQGLDWIGYISPGNGDIKYNEKFKDKVTLTADKSSSTACMHLNSLTSEDSAVYFCKRSLLALDYWGQGTTLTVSS
VL: DIVMTQSHKFMSTSVGDRVSITCKASQDVGTNIAWYQQKPGRSPKVLIYSASTRHTGVPDRFTGSGSGTDFTLTISNVQSEDLTDYFCQQYSSFPLTFGVGTKLELK
- EC50 [2]: 152 nM
- EC50, flow cytometry binding to cell-associated STn [3]: 2.42 nM
- EC50 [4]: 73.2 nM
